Laboratory results published in patent publication US20150010928A1, “MEANS AND METHODS FOR ASSESSING AN ENDOCRINE DISEASE OR DISORDER” (priority 2012, published 2015).
Marks after values point to notes of the source that are not given here.

Tested on: male rats
Assay: Plasma metabolite profiling (GC-MS, LC-MS, SPE-LC-MS) in male rats dosed once daily over 28 days (OECD 407)
Type: in vivo, rat
Conditions: male rats, plasma, high dose
Method: Each dose group in the studies consisted of five rats per sex. Additional groups of each 5 male and female animals served as controls. […] All animals of the animal population were kept under the same constant temperature (20-24±3° C.) and the same constant humidity (30-70%). The animals of the animal population were fed ad libitum. The food to be used was essentially free of chemical or microbial contaminants. Drinking water was also offered ad libitum. Accordingly, the water was free of chemical and microbial contaminants as laid down in the European Drinking Water Directive 98/83/EG. The illumination period was 12 hours light followed by 12 hours darkness (12 hours light, from 6:00 to 18:00, and 12 hours darkness, from 18:00 to 6:00). […] The test substances (compounds) in the Tables 1 to 17 below were dosed and administered as described in the Table 18.
In the morning of day 7, 14, and 28, blood was taken from the retroorbital venous plexus from fasted anaesthetized animals. From each animal, 1 ml of blood was collected with EDTA as anticoagulant. The samples were centrifuged for generation of plasma. All plasma samples were covered with a N2 atmosphere and then stored at −80° C. until analysis.
For mass spectrometry-based metabolite profiling analyses plasma samples were extracted and a polar and a non-polar (lipid) fraction was obtained. For GC-MS analysis, the non-polar fraction was treated with methanol under acidic conditions to yield the fatty acid methyl esters. Both fractions were further derivatised with O-methyl-hydroxyamine hydrochloride and pyridine to convert Oxogroups to O-methyloximes and subsequently with a silylating agent before analysis. In LC-MS analysis, both fractions were reconstituted in appropriate solvent mixtures. HPLC was performed by gradient elution on reversed phase separation columns. Mass spectrometric detection which allows target and high sensitivity MRM (Multiple Reaction Monitoring) profiling in parallel to a full screen analysis was applied as described in WO2003073464.
Steroids and their metabolites were measured by online SPE-LC-MS (Solid phase extraction-LC-MS).
Following comprehensive analytical validation steps, the data for each analyte were normalized against data from pool samples. These samples were run in parallel through the whole process to account for process variability. The significance of treatment group values specific for sex, treatmentduration and metabolite was determined by comparing means of the treated groups to the means of the respective untreated control groups using WELCH-test and quantified with treatment ratios versus control and p-values.
The identification of the most important biomarkers per toxicity pattern was done by a ranking of the analytes in the tables below. Therefore the metabolic changes in reference treatments of a given pattern (shown in the table) were compared with changes of the same metabolite in other unrelated treatments. […] The maximum absolute value of the respective TVALUE was taken to indicate the most important metabolite for the pattern.

With CC(=O)O[C@]1(C(C)=O)CC[C@H]2[C@@H]3C[C@H](C)C4=CC(=O)CC[C@]4(C)[C@H]3CC[C@@]21C [Medroxyprogesterone acetat] the “Alanine, ratio versus control” value (day 7) was 0.73 *, the “Androstenedione, ratio versus control” value (day 7) was 1.68 and the “Cholesterol, ratio versus control” value (day 7) was 0.9. The “Glycine, ratio versus control” value (day 7) was 1.05 *, the “Heptadecanoic acid (C17:0), ratio versus control” value (day 7) was 0.98 and the “Testosterone, ratio versus control” value (day 7) was 2. For the same compound, the “Threonine, ratio versus control” value (day 7) was 0.82 *, the “Uric acid, ratio versus control” value (day 7) was 0.6 * and the “alpha-Tocopherol, ratio versus control” value (day 7) was 0.82 *. The “Alanine, ratio versus control” value (day 14) was 0.97, the “Androstenedione, ratio versus control” value (day 14) was 0.28 * and the “Cholesterol, ratio versus control” value (day 14) was 0.69 *. The “Glycine, ratio versus control” value (day 14) was 1.06, the “Heptadecanoic acid (C17:0), ratio versus control” value (day 14) was 0.92 and the “Testosterone, ratio versus control” value (day 14) was 0.22 *. The “Threonine, ratio versus control” value (day 14) was 1, the “Uric acid, ratio versus control” value (day 14) was 1.07 and the “alpha-Tocopherol, ratio versus control” value (day 14) was 0.82 *. For the same compound, the “Androstenedione, ratio versus control” value (day 28) was 0.1 * and the “Testosterone, ratio versus control” value (day 28) was 0.08 *.
